pIC50: −log10 of the molar value.
Target: T1, recombinant hFAP (Homo sapiens, UniProt Q12884)
T1 sequence (Q12884 26-760 limits assumed): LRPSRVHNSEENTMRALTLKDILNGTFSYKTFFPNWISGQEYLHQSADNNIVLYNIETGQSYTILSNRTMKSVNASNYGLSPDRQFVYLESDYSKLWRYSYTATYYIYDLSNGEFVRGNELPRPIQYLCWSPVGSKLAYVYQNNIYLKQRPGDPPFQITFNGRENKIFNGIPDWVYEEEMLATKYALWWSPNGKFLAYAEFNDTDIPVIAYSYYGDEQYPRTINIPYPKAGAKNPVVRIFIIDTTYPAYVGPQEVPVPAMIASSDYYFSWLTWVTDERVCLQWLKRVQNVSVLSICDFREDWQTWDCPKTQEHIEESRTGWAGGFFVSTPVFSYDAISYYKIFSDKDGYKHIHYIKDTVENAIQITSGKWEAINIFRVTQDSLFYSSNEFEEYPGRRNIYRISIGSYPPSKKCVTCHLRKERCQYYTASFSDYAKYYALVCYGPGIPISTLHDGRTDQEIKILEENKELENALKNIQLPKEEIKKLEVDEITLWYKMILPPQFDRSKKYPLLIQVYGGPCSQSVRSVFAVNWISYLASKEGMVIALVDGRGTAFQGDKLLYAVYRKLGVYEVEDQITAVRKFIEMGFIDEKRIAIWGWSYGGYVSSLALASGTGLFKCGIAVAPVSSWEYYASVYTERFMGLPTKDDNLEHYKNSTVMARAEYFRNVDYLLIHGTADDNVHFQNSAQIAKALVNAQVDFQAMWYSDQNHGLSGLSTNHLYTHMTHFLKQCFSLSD
Experiment: hFAP inhibition assay (Z-Gly-Pro-AMC substrate)
Format: biochemical
Settings: for pIC50: Z-Gly-Pro-AMC 20 μM, protein 66 μM, pH 7.4, room temperature; for IC50 / inhibitory activity, comparison in words: recombinant hFAP
Description: (§1) Enzymatic activity of hFAP on the Z-Gly-Pro-AMC substrate was measured at room temperature on a microtiter plate reader, monitoring the fluorescence at an excitation wavelength of 360 nm and an emission wavelength of 465 nm. The reaction mixture contained substrate (20 μM), protein (66 μM, constant), assay buffer (50 mM Tris, 100 mM NaCl, and 1 mM EDTA, pH=7.4), and inhibitors with serial dilution from 167 nM to 80 fM, 1:2 in a total volume of 20 μL. Experiments were performed in triplicate, and the mean fluorescence values were fitted using Prism 7. The value is defined as the concentration of inhibitor required to reduce the enzyme activity by 50% after addition of the substrate [FIG. 1 and FIG. 8].
According to the same procedure, further comparative inhibition assays with trimeric binders having inter alia different lengths of linker group B and/or different payload groups C were performed with compounds Tri-ESV6-ValCit-MMAE (14), Tri-ESV6-linker-DOTAGA (13) and diastereoisomers of Tri-ESV6-DOTAGA (11, 12) [FIG. 18]. Comparative hFAP inhibition assays with tetravalent binders 10 and 29 were also performed [FIG. 20].
as §1, with “substrate.” for “substrate [FIG. 1 and FIG. 8].”
as §1, with “e) Inhibition assay with Tri-ESV6-DOTAGA, Tetra-ESV6-DOTAGA, Hexa-ESV6-DOTAGA, Octa-ESV6-DOTAGA, ESV6-L-DOTAGA and BI-ESV6-L-DOTAGA. Enzymatic” for “Enzymatic”, “substrate.” for “substrate [FIG. 1 and FIG. 8].”

Row | Structure (SMILES) | pIC50 | IC50 / inhibitory activity, comparison in words
1 | N#C[C@@H]1CC(F)(F)CN1C(=O)CNC(=O)c1ccnc2c(NC(=O)CCC(=O)NCCOCCOCCOCCOCCC(=O)NCCNC(=O)CCOCC(COCCC(=O)NCCNC(=O)CCOCCOCCOCCOCCNC(=O)CCC(=O)Nc3cccc4c(C(=O)NCC(=O)N5CC(F)(F)C[C@H]5C#N)ccnc34)(COCCC(=O)NCCNC(=O)CCOCCOCCOCCOCCNC(=O)CCC(=O)Nc3cccc4c(C(=O)NCC(=O)N5CC(F)(F)C[C@H]5C#N)ccnc34)NC(=O)CCC(C(=O)O)N3CCN(CC(=O)O)CCN(CC(=O)O)CCN(CC(=O)O)CC3)cccc12 (stereo partly shown) [Tri-ESV6-PEG4-DOTAGA] | 9.90 | 
2 | N#C[C@@H]1CC(F)(F)CN1C(=O)CNC(=O)c1ccnc2c(NC(=O)CCC(=O)NCCNC(=O)CCOCCNC(=O)CCC(C(=O)O)N3CCN(CC(=O)O)CCN(CC(=O)O)CCN(CC(=O)O)CC3)cccc12 (stereo partly drawn) [ESV6-L-DOTAGA] |  | IC50 comparable to the ones of original derivatives
3 | N#C[C@@H]1CC(F)(F)CN1C(=O)CNC(=O)c1ccnc2c(NC(=O)CCC(=O)NCCOCCOCCOCCOCCOCCOCCOCCOCCC(=O)NCCNC(=O)CCOCC(COCCC(=O)NCCNC(=O)CCOCCOCCOCCOCCOCCOCCOCCOCCNC(=O)CCC(=O)Nc3cccc4c(C(=O)NCC(=O)N5CC(F)(F)C[C@H]5C#N)ccnc34)(COCCC(=O)NCCNC(=O)CCOCCOCCOCCOCCOCCOCCOCCOCCNC(=O)CCC(=O)Nc3cccc4c(C(=O)NCC(=O)N5CC(F)(F)C[C@H]5C#N)ccnc34)NC(=O)CCC(C(=O)O)N3CCN(CC(=O)O)CCN(CC(=O)O)CCN(CC(=O)O)CC3)cccc12 (stereo partly shown) [Tri-ESV6-PEG8-DOTAGA] | 8.96 | 
4 | N#C[C@@H]1CC(F)(F)CN1C(=O)CNC(=O)c1ccnc2c(NC(=O)CCC(=O)NCCOCCOCCOCCOCCOCCOCCC(=O)NCCNC(=O)CCOCC(COCCC(=O)NCCNC(=O)CCOCCOCCOCCOCCOCCOCCNC(=O)CCC(=O)Nc3cccc4c(C(=O)NCC(=O)N5CC(F)(F)C[C@H]5C#N)ccnc34)(COCCC(=O)NCCNC(=O)CCOCCOCCOCCOCCOCCOCCNC(=O)CCC(=O)Nc3cccc4c(C(=O)NCC(=O)N5CC(F)(F)C[C@H]5C#N)ccnc34)NC(=O)CCC(C(=O)O)N3CCN(CC(=O)O)CCN(CC(=O)O)CCN(CC(=O)O)CC3)cccc12 (stereo partly shown) [Tri-ESV6-PEG6-DOTAGA] | 9.56 | 
5 | N#C[C@@H]1CC(F)(F)CN1C(=O)CNC(=O)c1ccnc2c(NC(=O)CCC(=O)NCCNC(=O)CCOCC(COCCC(=O)NCCNC(=O)CCC(=O)Nc3cccc4c(C(=O)NCC(=O)N5CC(F)(F)C[C@H]5C#N)ccnc34)NC(=O)CCOCC(COCCC(=O)NC(COCCC(=O)NCCNC(=O)CCC(=O)Nc3cccc4c(C(=O)NCC(=O)N5CC(F)(F)C[C@H]5C#N)ccnc34)COCCC(=O)NCCNC(=O)CCC(=O)Nc3cccc4c(C(=O)NCC(=O)N5CC(F)(F)C[C@H]5C#N)ccnc34)NC(=O)CCC(C(=O)O)N3CCN(CC(=O)O)CCN(CC(=O)O)CCN(CC(=O)O)CC3)cccc12 (stereo partly shown) [Tetra-ESV6-DOTAGA] |  | directly proportional to the valency until Tetra-ESV6-DOTAGA
6 | N#C[C@@H]1CC(F)(F)CN1C(=O)CNC(=O)c1ccnc2c(NC(=O)CCC(=O)NCCOCCOCCC(=O)NCCNC(=O)CCOCC(COCCC(=O)NCCNC(=O)CCOCCOCCNC(=O)CCC(=O)Nc3cccc4c(C(=O)NCC(=O)N5CC(F)(F)C[C@H]5C#N)ccnc34)(COCCC(=O)NCCNC(=O)CCOCCOCCNC(=O)CCC(=O)Nc3cccc4c(C(=O)NCC(=O)N5CC(F)(F)C[C@H]5C#N)ccnc34)NC(=O)CCC(C(=O)O)N3CCN(CC(=O)O)CCN(CC(=O)O)CCN(CC(=O)O)CC3)cccc12 (stereo partly shown) [Tri-ESV6-PEG2-DOTAGA] | 10.42 | 
7 | N#C[C@@H]1CC(F)(F)CN1C(=O)CNC(=O)c1ccnc2c(NC(=O)CCC(=O)NCCCCC(NC(=O)CCC(=O)Nc3cccc4c(C(=O)NCC(=O)N5CC(F)(F)C[C@H]5C#N)ccnc34)C(=O)NCCNC(=O)CCC(C(=O)O)N3CCN(CC(=O)O)CCN(CC(=O)O)CCN(CC(=O)O)CC3)cccc12 (stereo partly shown) [Bi-ESV6-DOTAGA, reference compound] |  | IC50 comparable to the ones of original derivatives

From patent US20260364214A1, “MULTIVALENT FIBROBLAST ACTIVATION PROTEIN LIGANDS FOR TARGETED DELIVERY APPLICATIONS” (Philochem AG, priority 2022, published 2026)
